Data as given in publication PMC4462073 (BMC Evolutionary Biology, 2015).

Molecular target: T1, PriA_Blon (Bifidobacterium longum, UniProt Q8G4S5)
T1 sequence (Q8G4S5 1-241): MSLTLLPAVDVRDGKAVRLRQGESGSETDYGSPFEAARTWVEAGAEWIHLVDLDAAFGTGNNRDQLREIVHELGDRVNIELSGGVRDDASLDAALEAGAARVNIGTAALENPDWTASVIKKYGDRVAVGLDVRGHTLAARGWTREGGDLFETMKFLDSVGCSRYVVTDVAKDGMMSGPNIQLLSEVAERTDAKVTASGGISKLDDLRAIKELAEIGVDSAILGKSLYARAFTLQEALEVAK
Test: steady-state kinetics, PRA isomerase
Type: biochemical
Conditions: read-out: In vitro activity^a / PRA isomerase (TrpF) / K M μM

O=C(O)c1ccccc1N[C@@H]1O[C@H](COP(=O)(O)O)[C@@H](O)[C@H]1O [PRA, N’-(5′-phosphoribosyl) anthranilate]
Km: 6.1 ± 0.1 µM
